Results from US11466273B2, “Monocarboxylate transporter 4 (MCT4) antisense oligonucleotide (ASO) inhibitors for use as therapeutics in the treatment of cancer” (THE UNIVERSITY OF BRITISH COLUMBIA, priority 2015, dated 2022).

Columns and labels:
[1] = system: MCT4; experiment: MCT4 expression in C4-2 cells after ASO transfection; type: cell-based, human; settings: read-out: IC50 reduction of MCT4 expression
Description: (§1) Cells were transfected in 6-well plates with ASOs at 100 nM for 48 hours (unless otherwise indicated) using Oligofectamine™ (Invitrogen™, Carlsbad, Calif.) or with MCT4-targeting siRNAs and controls (Dharmacon™, Chicago, Ill.) at 50 nM for 48 hours using Lipofectamine™ 2000 (Invitrogen™), following the manufacturer's instructions.
(§2) Total RNA was isolated using the RNeasy Mini Kit™ (Qiagen Inc.™, Hilden, Germany) and cDNA synthesized using the QuantiTect Reverse Transcription Kit™ (Qiagen™). Primers were designed using Primer-BLAST™. qRT-PCR reactions using KAPA SYBR Fast Universal™ (Kapa Biosystems™, Woburn, Mass.) were performed in triplicate in a ViiA 7 Real-Time PCR™ system (Applied Biosystems™, Foster City, Calif.). […]
(§3) Cells were harvested and lysed in RIPA buffer (50 mM Tris-Cl pH 7.4, 150 mM NaCl, 1% Igepal, 0.5% Na-deoxycholate, 0.1% SDS) supplemented with a complete protease inhibitor cocktail (Roche, Nutley, N.J.). The protein concentration of the lysate was determined by Pierce BCA Protein Assay™ (Thermo Scientific™, Waltham, Mass.). […] Following overnight incubation at 4° C., the primary antibody was probed with the corresponding secondary antibody and detected using the Odyssey Infrared Imaging System™ (Li-cor Biosciences™) and Image Studio Version 3.1™ (Li-cor Biosciences™). […]

[2] = system: C4-2 CRPC cells; experiment: C4-2 CRPC cell proliferation after ASO transfection; type: cell-based, human; settings: read-out: IC50 inhibition of C4-2 cell proliferation
Description: (§4) Cell viability was assessed by trypan blue exclusion.
as §1

[3] = system: MCT4 mRNA; experiment: MCT4 expression (mRNA, protein) in PC-3 cells after ASO transfection; type: cell-based, human; settings: for MCT4 protein levels, time course: 96 hours; for inhibition of MCT4 expression, screening of ten MCT4 ASOs: qPCR and Western blot, 48 hours; for IC50: transfection of 5 nM to 200 nM, read-out: IC50 reduction of MCT4 mRNA levels
Description: as §1
(§5) Total RNA was isolated using the RNeasy Mini Kit™ (Qiagen Inc.™, Hilden, Germany) and cDNA synthesized using the QuantiTect Reverse Transcription Kit™ (Qiagen™). Primers were designed using Primer-BLAST™. qRT-PCR reactions using KAPA SYBR Fast Universal™ (Kapa Biosystems™, Woburn, Mass.) were performed in triplicate in a ViiA 7 Real-Time PCR™ system (Applied Biosystems™, Foster City, Calif.). Target genes were normalized to a geometric average of 3 internal reference genes (Vandesompele et al., 2002).
Cells were harvested and lysed in RIPA buffer (50 mM Tris-Cl pH 7.4, 150 mM NaCl, 1% Igepal, 0.5% Na-deoxycholate, 0.1% SDS) supplemented with a complete protease inhibitor cocktail (Roche, Nutley, N.J.). The protein concentration of the lysate was determined by Pierce BCA Protein Assay™ (Thermo Scientific™, Waltham, Mass.). The lysate was run on 8% SDS polyacrylamide gel (20 ug of protein per lane) and proteins were transferred onto PVDF membrane (Millipore™, Billerica, Mass.). The blot was blocked with the Odyssey™ blocking buffer (Li-cor Biosciences™) and probed with anti-MCT4 antibody. Vinculin was used as a loading control. Following overnight incubation at 4° C., the primary antibody was probed with the corresponding secondary antibody and detected using the Odyssey Infrared Imaging System™ (Li-cor Biosciences™) and Image Studio Version 3.1™ (Li-cor Biosciences™). Densitometry analysis was done using ImageJ (U.S. National Institutes of Health, Bethesda, Md.).

[4] = system: PC-3 cells; experiment: qPCR of glycolysis and lactic acid conversion genes in PC-3 cells; type: cell-based, human
Description: as §5

[5] = system: subcutaneous PC-3 tumours; experiment: Treatment of PC-3 tumour-bearing nude mice with MCT4 ASO; type: in vivo; settings: for host toxicity (animal weights and behaviour) / growth of PC-3 tumours: 10 mg/kg intraperitoneal; for host toxicity (animal weights and behaviour): 15 days; for growth of PC-3 tumours: daily for 5 days, 2 days off, total 15 days; for MCT4 protein expression in tumour / cell apoptosis, cleaved-caspase 3 staining / cell proliferation, Ki-67 staining: tumour tissue IHC
Description: PC-3 cells ([…] cells in 1:1 HBSS:Matrigel) were injected subcutaneously into both flanks of 24 male athymic nude mice (Simonsen Laboratories™, Gilroy, Calif.). Once the mean tumour volume had reached approximately 100 mm3, mice were randomized into four groups and treated with intraperitoneal injections of MCT4 ASO #1 (SEQ ID NO: 1), #14 (SEQ ID NO: 5), control ASO, or vehicle (PBS) at 10 mg/kg daily for 5 days followed by 2 days off treatment for a total of 15 days. The health of the mice was monitored throughout the study by measuring body weights and checking for abnormal behaviour such as lethargy, lack of hydration, and additional signs of weakness. Tumour size was measured twice weekly and tumour volume calculated using the formula: Volume=Length×width×depth×0.5236 (mm3). Mice were sacrificed 1 hour after the final dose for tissue harvesting.
Tumour tissue was formalin-fixed and paraffin-embedded for immunohistochemical analysis. Tissues were sectioned, probed, and stained with DAB (Sigma™) as previously described (Wang et al., 2005). […] For MCT4, images of five random fields at 200× magnification were taken per tumour and staining intensity was assessed by percentage scoring, using the formula: Intensity=(% area score 3)×3+(% area score 2)×2+(% area score 1)×1. The extent of immune cell aggregation was quantified following CD31 staining by imaging the five most prominent regions of aggregates per tumour at 200× magnification and determining the percent area of the field they occupied. The proportions of immune cells were evaluated as the area of positive staining normalized to the area occupied by immune cell aggregates in the same five prominent regions.

[6] = system: PC-3 cells; experiment: PC-3 cell proliferation after ASO/siRNA transfection; type: cell-based, human; settings: for inhibition of PC-3 cell proliferation, screening of ten MCT4 ASOs: 100 nM, 48 hours; for inhibition of cell proliferation, time course: 96 hours post-transfection; for IC50: transfection of 5 nM to 200 nM, read-out: IC50 inhibition of PC-3 cell proliferation
Description: as §4, §1

[7] = system: PC-3 cells; experiment: Lactate and glucose determination in PC-3 cells; type: cell-based, human; settings: after 48 hours of transfection
Description: PC-3 cells transfected with ASOs for 48 hours were assessed for lactate and glucose levels. Cells were incubated with fresh media for 4 hours. A sample of the media was then taken and deproteinated with 10K Spin Columns™ (BioVision™, Milpitas, Calif.) prior to determination of lactate concentration using Lactate Assay Kit (BioVision) and glucose concentration using Glucose Assay Kit™ (BioVision™). Intracellular lactate levels were determined by lysing ASO-transfected cells in MQH2O. Final concentrations were determined by normalizing to the total number of live cells.

[8] = system: mouse MCT4; experiment: Mouse MCT4 expression in TRAMPC2 cells after ASO transfection; type: cell-based; settings: up to 200 nM
Description: as §1, §2, §3

[9] = system: TRAMPC2 prostate cancer cells; experiment: TRAMPC2 cell proliferation after ASO transfection; type: cell-based, mouse; settings: up to highest tested concentration of 200 nM
Description: as §4, §1

[10] = system: DU145 prostate cancer cells; experiment: DU145 cell proliferation after ASO transfection; type: cell-based, human; settings: compared with PC-3 and C4-2
Description: as §4, §1

[11] = system: MCT4; experiment: MCT4 expression in DU145 cells after ASO transfection; type: cell-based, human; settings: compared with PC-3 and C4-2
Description: as §1, §2, §3

[12] = system: PC3 cells; experiment: Combination screening, total live PC3 cell numbers; type: cell-based, human; settings: approximate IC50 used for combination screening, 48 hours; read-out: IC50 Concentration
Text: Human PC-3 and DU145 CRPC cells, human LNCaP prostate cancer cells, and mouse TRAMPC2 prostate cancer cells were purchased from the American Type Culture Collection (ATCC); C4-2 CRPC cells were from the Vancouver Prostate Centre, Vancouver, BC, Canada. Human monolayer cultures were maintained in RPMI-1640 (GE Healthcare Hyclone™, Logan, Utah) supplemented with 10% fetal bovine serum (FBS) (GE Healthcare Hyclone™, Logan, Utah) while TRAMPC2 cells were maintained in DMEM (GE Healthcare Hyclone™, Logan, Utah) supplemented with 5% FBS. For cell counting, cells were trypsinized to form a single cell suspension and counted using a TC20 Automated Cell Counter (Bio-Rad, Hercules, Calif.). Cell viability was assessed by trypan blue exclusion.
Various combination strategies were screened at the approximate IC50 concentrations to determine whether synergistic effects may be found by combining current cancer therapeutics (see TABLE D) with MCT4 ASO SEQ ID NO:5. In FIGS. 10 A-C, the total live PC3 cell numbers were assessed 48 hours after treatment with Metformin, Doxycycline and docetaxel both alone and in combination with MCT4 ASO SEQ ID NO:5.

| Sequence | IC50 [1] [nM] | IC50 [2] [nM] | MCT4 protein levels, time course [3] | inhibition of MCT4 expression, screening of ten MCT4 ASOs [3] | IC50 [3] [nM] | expression of glycolysis genes GAPDH, PGK1, PGAM1 and ENO1 [4] | expression of lactate dehydrogenase A (LDHA) [4] | expression of pyruvate dehydrogenase kinase-1 (PDK1) [4] | host toxicity (animal weights and behaviour) [5] | growth of PC-3 tumours [5] | MCT4 protein expression in tumour [5] | cell apoptosis, cleaved-caspase 3 staining [5] | cell proliferation, Ki-67 staining [5] | inhibition of PC-3 cell proliferation, screening of ten MCT4 ASOs [6] | inhibition of cell proliferation, time course [6] | IC50 [6] [nM] | glucose consumption [7] | intracellular lactate [7] | lactic acid secretion [7] | reduction in mouse MCT4 expression [8] | also measured |
| --- | --- | --- | --- | --- | --- | --- | --- | --- | --- | --- | --- | --- | --- | --- | --- | --- | --- | --- | --- | --- | --- |
| AGATGCAGAAGACCACGAGG (chemistry not given here; listed as Homo sapiens) [SEQ ID No. 5] | 26 | 27 | remained low | greatest potency | 32 | down regulation | depressed | decreased expression | without inducing major host toxicity | markedly inhibited | decrease in MCT4 protein expression | increase in cell apoptosis | decrease in cell proliferation | greatest potency | maintained the inhibition of cell proliferation | 26 | extensive decrease | accumulation | marked inhibition | did not lead to a significant reduction | reduction in TRAMPC2 cell proliferation [9]: did not lead to a significant reduction; inhibitory effect on DU145 cell proliferation [10]: almost identical IC50 values; inhibitory effect on MCT4 expression in DU145 cells [11]: almost identical IC50 values; IC50 [12]: 50 nM |
| TCCCATGGCCAGGAGGGTTG (chemistry not given here; listed as Homo sapiens) [SEQ ID No. 1] | 50 | 40 | remained low | greatest potency | 50 | down regulation | depressed | decreased expression | without inducing major host toxicity | markedly inhibited | decrease in MCT4 protein expression | increase in cell apoptosis | decrease in cell proliferation | greatest potency | maintained the inhibition of cell proliferation | 50 | extensive decrease | accumulation | marked inhibition | did not lead to a significant reduction | reduction in TRAMPC2 cell proliferation [9]: did not lead to a significant reduction; inhibitory effect on DU145 cell proliferation [10]: almost identical IC50 values; inhibitory effect on MCT4 expression in DU145 cells [11]: almost identical IC50 values |
